Results from ChEMBL document CHEMBL4382200, “Discovery of Novel 7-Aryl 7-Deazapurine 3'-Deoxy-ribofuranosyl Nucleosides with Potent Activity against Trypanosoma cruzi” (J Med Chem, 2018).

Experiments:
Trypanosoma cruzi = experiment: Antiparasitic activity against Trypanosoma cruzi Tulahuen CL2 intracellular amastigotes expressing beta-galactosidase infected in human MRC5 SV2 cells after 7 days by chlorophenol red beta-D-galactopyranoside-based spectrophotometric analysis; assay type: functional, organism-based; details: Tulahuen CL2, MRC-5 SV2, 168 h, read-out: EC50
[1] = Cytotoxicity against human MRC5 SV2 cells assessed as reduction in cell viability after 3 days resazurin-based fluorimetric assay; details: MRC-5 SV2, 72 h
[2] = Therapeutic index, ratio EC50 for human MRC5 SV2 cells to EC50 for Trypanosoma cruzi Tulahuen CL2 intracellular amastigotes; assay type: toxicity, cell-based; details: read-out: Ratio EC50
Cytochrome P450 [3] = experiment: Drug metabolism in human liver microsome S9 fraction assessed as CYP450-mediated metabolism by measuring compound remaining at 5 uM pretreated with NADPH and measured after 30 mins by UPLC-MS/MS analysis; assay type: ADME, microsomes; details: microsomes, 0.5 h, 5 µM
[4] = Drug metabolism in dog liver microsome S9 fraction assessed as CYP450-mediated metabolism by measuring compound remaining at 5 uM pretreated with NADPH and measured after 15 mins by UPLC-MS/MS analysis; assay type: ADME, microsomes, Canis lupus familiaris; details: microsomes, 0.25 h, 5 µM
[5] = Drug metabolism in rat liver microsome S9 fraction assessed as CYP450-mediated metabolism by measuring compound remaining at 5 uM pretreated with NADPH and measured after 30 mins by UPLC-MS/MS analysis; assay type: ADME, microsomes; details: microsomes, 0.5 h, 5 µM
[6] = Drug metabolism in mouse liver microsome S9 fraction assessed as CYP450-mediated metabolism by measuring compound remaining at 5 uM pretreated with NADPH and measured after 30 mins by UPLC-MS/MS analysis; assay type: ADME, microsomes; details: microsomes, 0.5 h, 5 µM
[7] = Drug metabolism in mouse liver microsome S9 fraction assessed as CYP450-mediated metabolism by measuring compound remaining at 5 uM pretreated with NADPH and measured after 15 mins by UPLC-MS/MS analysis; assay type: ADME, microsomes; details: microsomes, 0.25 h, 5 µM
[8] = Drug metabolism in mouse liver microsome S9 fraction assessed as CYP450-mediated metabolism by measuring compound remaining at 5 uM pretreated with NADPH and measured after 60 mins by UPLC-MS/MS analysis; assay type: ADME, microsomes; details: microsomes, 1 h, 5 µM
[9] = Drug metabolism in rat liver microsome S9 fraction assessed as CYP450-mediated metabolism by measuring compound remaining at 5 uM pretreated with NADPH and measured after 15 mins by UPLC-MS/MS analysis; assay type: ADME, microsomes; details: microsomes, 0.25 h, 5 µM
[10] = Drug metabolism in dog liver microsome S9 fraction assessed as CYP450-mediated metabolism by measuring compound remaining at 5 uM pretreated with NADPH and measured after 60 mins by UPLC-MS/MS analysis; assay type: ADME, microsomes, Canis lupus familiaris; details: microsomes, 1 h, 5 µM
Cytochrome P450 [11] = experiment: Drug metabolism in human liver microsome S9 fraction assessed as CYP450-mediated metabolism by measuring compound remaining at 5 uM pretreated with NADPH and measured after 15 mins by UPLC-MS/MS analysis; assay type: ADME, microsomes; details: microsomes, 0.25 h, 5 µM
Cytochrome P450 [12] = experiment: Drug metabolism in human liver microsome S9 fraction assessed as CYP450-mediated metabolism by measuring compound remaining at 5 uM pretreated with NADPH and measured after 60 mins by UPLC-MS/MS analysis; assay type: ADME, microsomes; details: microsomes, 1 h, 5 µM
[13] = Drug metabolism in dog liver microsome S9 fraction assessed as CYP450-mediated metabolism by measuring compound remaining at 5 uM pretreated with NADPH and measured after 30 mins by UPLC-MS/MS analysis; assay type: ADME, microsomes, Canis lupus familiaris; details: microsomes, 0.5 h, 5 µM
[14] = Drug metabolism in rat liver microsome S9 fraction assessed as CYP450-mediated metabolism by measuring compound remaining at 5 uM pretreated with NADPH and measured after 60 mins by UPLC-MS/MS analysis; assay type: ADME, microsomes; details: microsomes, 1 h, 5 µM

Structure (SMILES)	EC50 (Trypanosoma cruzi) [µM]	EC50 [1] [µM]	selectivity ratio [2]	further results
Nc1ncnc2c1c(-c1ccc(F)c(F)c1)cn2[C@@H]1O[C@H](CO)C[C@H]1O	0.33	> 64	> 190	
Nc1ncnc2c1c(C1CCCCC1)cn2[C@@H]1O[C@H](CO)C[C@H]1O	20.9	> 64	> 3	
Nc1ncnc2c1c(-c1ccc(C(F)(F)F)cc1)cn2[C@@H]1O[C@H](CO)C[C@H]1O	0.53	40	76	
Nc1ncnc2c1c(C1=CCCCC1)cn2[C@@H]1O[C@H](CO)C[C@H]1O	31.8	> 64	> 2	
Nc1ncnc2c1c(-c1cccc(C(F)(F)F)c1)cn2[C@@H]1O[C@H](CO)C[C@H]1O	11.2	49.6	4.4	
Nc1ncnc2c1c(-c1ccc(OC(F)(F)F)cc1)cn2[C@@H]1O[C@H](CO)C[C@H]1O	1.39	40.4	29	
Nc1ncnc2c1c(-c1ccc([N+](=O)[O-])cc1)cn2[C@@H]1O[C@H](CO)C[C@H]1O	1.21	> 64	> 53	
Nc1ncnc2c1c(-c1ccccc1)cn2[C@@H]1O[C@H](CO)C[C@H]1O	2.57	61.8	24	
CCc1ccc(-c2cn([C@@H]3O[C@H](CO)C[C@H]3O)c3ncnc(N)c23)cc1	1.04	18.4	18	
Nc1ncnc2c1c(-c1ccc(F)cc1)cn2[C@@H]1O[C@H](CO)C[C@H]1O	0.64	> 64	> 100	
Cc1cccc(-c2cn([C@@H]3O[C@H](CO)C[C@H]3O)c3ncnc(N)c23)c1	5.15	> 64	> 12	
OC(Cn1cncn1)(Cn1cncn1)c1ccc(F)cc1F [FLUCONAZOLE]				Stability (Cytochrome P450 [3]): Stable; Stability [4]: Stable; Stability [5]: Stable; Stability [6]: Stable; Stability [7]: Stable; Stability [8]: Stable; Stability [9]: Stable; Stability [10]: Stable; Stability (Cytochrome P450 [11]): Stable; Stability (Cytochrome P450 [12]): Stable; Stability [13]: Stable; Stability [14]: Stable
Nc1ncnc2c1c(-c1ccc3ccccc3c1)cn2[C@@H]1O[C@H](CO)C[C@H]1O	0.72	5	7	
Cc1cc(-c2cn([C@@H]3O[C@H](CO)C[C@H]3O)c3ncnc(N)c23)ccc1Cl	0.21	16.7	80	
Nc1ncnc2c1c(-c1ccc(Cl)c(Cl)c1)cn2[C@@H]1O[C@H](CO)C[C@H]1O	0.059	13.6	230	
